Results from patent US10519504B2, “Methods for treatment of oncological disorders using epimetabolic shifters, multidimensional intracellular molecules, or environmental influencers” (Berg LLC, priority 2009, dated 2019).

Key:
[1] = rats; Bhagavan et al.; cited from earlier work
[2] = tested on: Pyruvate Dehydrogenase-B (PDH-E1); test: Western blot, Pyruvate Dehydrogenase beta levels; type: cell-based, human
Method: The pyruvate kinase blots were stripped by incubating for 30 minutes with methanol, followed by two 10 minute washes with TBS-T, then 30 minutes of incubation with Stripping buffer at 50 deg C., and followed by two washes with 100 ml or more of TBS-T for 30′ each. The 2 blots were scanned in laser scanner to check for complete stripping. After making sure stripping of the antibody and the ECF reagent has worked, the blots were activated with methanol for 5 seconds, washed with water for 5 minutes, and TBST for 15 minutes. The blots are blocked for 1 hour with 5% blocking reagent in TBS-T at room temperature and then washed 3 times with TBS-T (1X−15′; 2X5′ each) and probed with the antibody for Pyruvate Dehydrogenase in 5% BSA (ABNOVA catalog #H00005162-M03) at 1:500 dilutions) overnight at 4 deg C. with shaking. After the overnight incubation with primary antibody for Pyruvate Dehydrogenase, the membranes were washed 3 times with TBS-T (1X−15′; 2X5′ each) and probed with the secondary antibody (antimouse; 1:10,000 dilution) for 1 h on the orbital tilting shaker at room temperature. […]
The levels of LDH and PDH were determined by probing the blots successively with primary antibodies for LDH and PDH, essentially as described above. […]

[3] = tested on: Pancreatic Cancer Cells (PaCa2); test: Real-time PCR Diabetes Array; type: cell-based; conditions: 100 uM Q10
Method: Experiments were carried out essentially as described above.

[4] = tested on: SCC cells; test: Real-time PCR Heat Shock Protein Array; type: cell-based
From the text: The control cells were untreated cells.
Heat Shock Arrays were run for SCC cells and the data of regulated genes is summarized below in Table 13.

[5] = 100 μM Q10, Down regulated at 6 hours

COC1=C(OC)C(=O)C(C/C=C(\C)CC/C=C(\C)CC/C=C(\C)CC/C=C(\C)CC/C=C(\C)CC/C=C(\C)CC/C=C(\C)CC/C=C(\C)CC/C=C(\C)CCC=C(C)C)=C(C)C1=O [Q10, Coenzyme Q10]
orally-administered CoQ10 absorbed [1]: 2-3% | expression of PDH-E1 ([2]; cancer cells): progressive increase in the expression of the PDH-E1 proteins | expression of PDH-E1 ([2]; normal cells): minimal changes in the normal cells | diabetes array genes (ABCC8, ACLY, ADRB3 ... IL4R, IL6 as listed) [3]: modulated by Q10 treatment | DNAJB5 Regulation [4, 5]: Down | DNAJB13 Regulation [4, 5]: Down | DNAJC4 Regulation [4, 5]: Down | DNAJC5B Regulation [4, 5]: Down | DNAJC12 Regulation [4, 5]: Down | CCT6B Regulation ([4]; 100 μM Q10, Down regulated at 24 hours): Down | DNAJA1 Regulation ([4]; 100 μM Q10, at 6 hours): Up regulated | HSPA8 Regulation ([4]; 100 μM Q10, at 6 hours): Up regulated | HSPH1 Regulation ([4]; 100 μM Q10, at 6 hours): Up regulated
